Measurements taken from the supplement of paper PMC11061612.

Key:
Assay in all cases: combination Emax (second highest fraction inhibited in the dose matrix, 72 h); higher = more inhibition; extreme values may be limits of the assay
[1] = system: A172 (Glioblastoma)
Method in brief: (§1)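 Cell lines in DMEM/F12 or RPMI with 10% FBS were plated in 1536-well plates, held 24 hours at 37°C, 5% CO2, then given two-drug dose matrices for 72 hours (DMSO typically 0.2%). Viability was read by CellTiter-Glo 2.0 luminescence and scaled as inhibition from 0 (vehicle wells) to 1 (blank wells). Combination Emax is the second-highest inhibition in the matrix; Bliss excess is observed combination effect minus expected EA + EB − EA·EB, EA and EB being single-agent effects.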

[2] = system: CAL-39 (Other Solid Carcinomas)
Method in brief: as §1

[3] = system: DOK (Oral Cavity Carcinoma)
Method in brief: as §1

[4] = system: EW-22 (Ewing's Sarcoma)
Method in brief: as §1

[5] = system: HCC-827 (Lung Adenocarcinoma)
Method in brief: as §1

[6] = system: HCC38 (Breast Carcinoma)
Method in brief: as §1

[7] = system: HuO9 (Osteosarcoma)
Method in brief: as §1

[8] = system: JHH-6 (Hepatocellular Carcinoma)
Method in brief: as §1

[9] = system: KG-1 (Acute Myeloid Leukemia)
Method in brief: as §1

[10] = system: MCF7 (Breast Carcinoma)
Method in brief: as §1

[11] = system: MES-SA (Other Solid Carcinomas)
Method in brief: as §1

[12] = system: MSTO-211H (Mesothelioma)
Method in brief: as §1

[13] = system: NOMO-1 (Acute Myeloid Leukemia)
Method in brief: as §1

[14] = system: P31-FUJ (Acute Myeloid Leukemia)
Method in brief: as §1

[15] = system: SK-MEL-1 (Melanoma)
Method in brief: as §1

[16] = system: SK-UT-1 (Other Solid Carcinomas)
Method in brief: as §1

[17] = system: SNU-61 (Colorectal Carcinoma)
Method in brief: as §1

[18] = system: SW48 (Colorectal Carcinoma)
Method in brief: as §1

[19] = system: SW948 (Colorectal Carcinoma)
Method in brief: as §1

[20] = system: TYK-nu (Ovarian Carcinoma)
Method in brief: as §1

Compound | combination Emax [1] | combination Emax [2] | combination Emax [3] | combination Emax [4] | combination Emax [5] | combination Emax [6] | combination Emax [7] | combination Emax [8] | combination Emax [9] | combination Emax [10] | combination Emax [11] | combination Emax [12] | combination Emax [13] | combination Emax [14] | combination Emax [15] | combination Emax [16] | combination Emax [17] | combination Emax [18] | combination Emax [19] | combination Emax [20]
CN(CCO)CC[C@H](CSc1ccccc1)Nc1ccc(S(=O)(=O)NC(=O)c2ccc(N3CCC([C@@H](O)c4ccccc4-c4ccc(Cl)cc4)CC3)cc2)cc1S(=O)(=O)C(F)(F)F [AZD4320] + C1CN(CCC1(C(=O)N[C@@H](CCO)C2=CC=C(C=C2)Cl)N)C3=NC=NC4=C3C=CN4 [Capivasertib] (first compound max 1 µM, 7x7, partner max 3 µM) | 0.158 | 0.286 | 0.39 | 0.851 | 0.201 | 0.848 | 0.873 | 0.153 | 0.929 | 0.279 | 0.282 | 0.48 | 0.51 | 0.869 | 0.419 | 0.226 | 0.053 | 0.732 | 0.624 | 0.244
CN(CCO)CC[C@H](CSc1ccccc1)Nc1ccc(S(=O)(=O)NC(=O)c2ccc(N3CCC([C@@H](O)c4ccccc4-c4ccc(Cl)cc4)CC3)cc2)cc1S(=O)(=O)C(F)(F)F [AZD4320] + C=CCn1c(=O)c2cnc(Nc3ccc(N4CCN(C)CC4)cc3)nc2n1-c1cccc(C(C)(C)O)n1 [AZD1775] (first compound max 1 µM, partner max 1 µM) | 0.491 | 0.345 | 0.504 | 0.988 | 0.301 | 0.903 | 0.949 | 0.271 | 1 | 0.51 | 0.865 | 0.933 | 0.97 | 0.983 | 0.584 | 0.693 | 0.349 | 0.825 | 0.745 | 0.65
CN(CCO)CC[C@H](CSc1ccccc1)Nc1ccc(S(=O)(=O)NC(=O)c2ccc(N3CCC([C@@H](O)c4ccccc4-c4ccc(Cl)cc4)CC3)cc2)cc1S(=O)(=O)C(F)(F)F [AZD4320] + CCN(CCO)CCCOc1ccc2c(Nc3cc(CC(=O)Nc4cccc(F)c4)[nH]n3)ncnc2c1 [AZD2811] (first compound max 1 µM, 7x7, partner max 1 µM) | 0.457 | 0.397 | 0.747 | 1 | 0.176 | 0.802 | 0.728 | 0.391 | 0.966 | 0.248 | 0.513 | 0.837 | 0.76 | 0.954 | 0.453 | 0.414 | 0.126 | 1 | 0.545 | 0.27
CN(CCO)CC[C@H](CSc1ccccc1)Nc1ccc(S(=O)(=O)NC(=O)c2ccc(N3CCC([C@@H](O)c4ccccc4-c4ccc(Cl)cc4)CC3)cc2)cc1S(=O)(=O)C(F)(F)F [AZD4320] + CN(C)CCCOc1ccc(-c2ccc3ncc4c(c3c2)n(C2CCOCC2)c(=O)n4C)cn1 [AZD0156] (first compound max 1 µM, 7x7, partner max 1 µM) | 0.176 | 0.181 | 0.136 | 0.897 | 0.22 | 0.812 | 0.79 | 0.129 | 0.952 | 0.234 | 0.128 | 0.435 | 0.377 | 0.814 | 0.498 | 0.0694 | 0.11 | 0.517 | 0.248 | 0.165
CN(CCO)CC[C@H](CSc1ccccc1)Nc1ccc(S(=O)(=O)NC(=O)c2ccc(N3CCC([C@@H](O)c4ccccc4-c4ccc(Cl)cc4)CC3)cc2)cc1S(=O)(=O)C(F)(F)F [AZD4320] + C[C@@H]1COCCN1C2=NC(=NC(=C2)C3(CC3)[S@](=N)(=O)C)C4=C5C=CNC5=NC=C4 [AZD6738] (first compound max 1 µM, 7x7, partner max 10 µM) | 0.731 | 0.619 | 0.587 | 1 | 0.551 | 0.933 | 0.956 | 0.443 | 1 | 0.656 | 0.691 | 0.959 | 0.972 | 0.994 | 0.597 | 0.919 | 0.365 | 0.954 | 0.563 | 0.803
CN(CCO)CC[C@H](CSc1ccccc1)Nc1ccc(S(=O)(=O)NC(=O)c2ccc(N3CCC([C@@H](O)c4ccccc4-c4ccc(Cl)cc4)CC3)cc2)cc1S(=O)(=O)C(F)(F)F [AZD4320] + C[C@@H](Nc1cc(F)cc(F)c1)c1cc(C(=O)N(C)C)cc2c(=O)cc(N3CCOCC3)oc12 [AZD8186] (first compound max 1 µM, 7x7, partner max 3 µM) | 0.327 | 0.41 | 0.301 | 1 | 0.393 | 0.884 | 0.953 | 0.326 | 0.953 | 0.544 | 0.297 | 0.751 | 0.636 | 0.543 | 0.722 | 0.273 | 0.162 | 0.914 | 0.485 | 0.645
CN(CCO)CC[C@H](CSc1ccccc1)Nc1ccc(S(=O)(=O)NC(=O)c2ccc(N3CCC([C@@H](O)c4ccccc4-c4ccc(Cl)cc4)CC3)cc2)cc1S(=O)(=O)C(F)(F)F [AZD4320] + Cc1cc2ncnn2cc1Nc1ncc2c(n1)n(C1CCOCC1)c(=O)n2C [AZD7648] (first compound max 1 µM, 7x7, partner max 10 µM) | 0.262 | 0.371 | 0.362 | 0.905 | 0.182 | 0.873 | 0.77 | 0.174 | 0.966 | 0.367 | 0.226 | 0.327 | 0.475 | 0.858 | 0.606 | 0.163 | 0.107 | 0.632 | 0.393 | 0.344
CN(CCO)CC[C@H](CSc1ccccc1)Nc1ccc(S(=O)(=O)NC(=O)c2ccc(N3CCC([C@@H](O)c4ccccc4-c4ccc(Cl)cc4)CC3)cc2)cc1S(=O)(=O)C(F)(F)F [AZD4320] + Cn1cnc2c(F)c(Nc3ccc(Br)cc3Cl)c(C(=O)NOCCO)cc21 [Selumetinib] (first compound max 1 µM, 7x7, partner max 3 µM) | 0.212 | 0.604 | 0.562 | 1 | 0.298 | 0.907 | 0.979 | 0.35 | 0.971 | 0.402 | 0.246 | 0.531 | 1 | 0.901 | 0.976 | 0.345 | 0.512 | 0.914 | 0.79 | 0.619
COc1nnc2ccc(N3CCC(c4ccc(OCCN5CCN(C)C(=O)[C@H]5C)cc4)CC3)nn12 [AZD5153] + C=CCn1c(=O)c2cnc(Nc3ccc(N4CCN(C)CC4)cc3)nc2n1-c1cccc(C(C)(C)O)n1 [AZD1775] (first compound max 1 µM, partner max 1 µM) | 0.543 | 0.788 | 0.658 | 0.781 | 0.583 | 0.433 | 0.919 | 0.53 | 0.861 | 0.684 | 0.685 | 0.255 | 0.983 | 0.97 | 0.568 | 0.787 | 0.601 | 0.66 | 0.655 | 0.772
C[C@@H]1COCCN1c1cc(C2([S@](C)(=N)=O)CC2)nc(-c2ccnc3[nH]ccc23)n1 [AZD6738] + O=C(c1cc(Cc2n[nH]c(=O)c3ccccc23)ccc1F)N1CCN(C(=O)C2CC2)CC1 [Olaparib] (first compound max 10 µM, 7x7, partner max 10 µM) | 0.717 | 0.526 | 0.369 | 0.942 | 0.498 | 0.611 | 0.857 | 0.263 | 0.739 | 0.573 | 0.643 | 0.705 | 0.908 | 0.877 | 0.312 | 0.821 | 0.27 | 0.72 |  | 0.665
Cc1cc2ncnn2cc1Nc1ncc2c(n1)n(C1CCOCC1)c(=O)n2C [AZD7648] + O=C(c1cc(Cc2n[nH]c(=O)c3ccccc23)ccc1F)N1CCN(C(=O)C2CC2)CC1 [Olaparib] (first compound max 10 µM, 7x7, partner max 10 µM) | 0.468 | 0.174 | 0.152 | 0.918 | 0.199 | 0.07 | 0.441 | 0.158 | 0.131 | 0.29 | 0.637 | 0.218 | 0.365 | 0.34 | 0.24 | 0.158 | 0.0443 | 0.246 |  | 0.415
